Data: US20230365554A1, “SUBSTITUTED PYRROLO-PYRIDINONE DERIVATIVES AND THERAPEUTIC USES THEREOF” (The Broad Institute, Inc., priority 2020, published 2023)
Several values for one entry are separate records, joined by “and”; a condition that tells them apart may be missing. Equal values may be shown once.

Key:
human CSNK1D = human CSNK1D (Homo sapiens (Human), UniProt P48730); assay: CSNK1D assay (ADP-Glo, 1 μM ATP); type: biochemical; details: median, Table 2, read-out: CSNK1D IC50 [mol/l] (median)
Description: CSNK1D-inhibitory activity of compounds of the present invention in presence of 1 μM adenosine-tri-phosphate (ATP) was quantified employing the CSNK1D assay as described in the following paragraphs. In essence, the enzyme activity is measured by quantification of the adenosine-di-phosphate (ADP), which is generated as a co-product of the enzyme reaction, via the “ADP-Glo™ Kinase Assay” kit from the company Promega. This detection system works as follows: In a first step the ATP not consumed in the kinase reaction is quantitatively converted to cAMP employing an adenylate cyclase (“ADP-Glo-reagent”), then the adenylate cyclase is stopped and the ADP generated in the kinase reaction converted to ATP which generates in a luciferase-based reaction a glow-luminescence signal (“Kinase Detection Reagent”).
Recombinant fusion protein of N-terminal Glutathion-S-Transferase (GST) and full-length human CSNK1D, expressed by baculovirus infected insect cells and purified via Glutathion affinity chromatography, was purchased from Life Technologies (product no. PV3665) and used as enzyme. As substrate for the kinase reaction the biotinylated peptide Btn-Ahx-SGSEGDSESGEEEG (C-terminus in amide form) was used which can be purchased e.g. from the company Biosyntan (Berlin-Buch, Germany).
For the assay 50 nl of a 100 fold concentrated solution of the test compound in DMSO was pipetted into a white 1536-well microtiter plate (Greiner Bio-One, Frickenhausen, Germany), 2 μL of a solution of CSNK1D in aqueous assay buffer [50 mM HEPES pH 7.5, 10% (v/v) glycerol, 10 mM MgCl2, 50 mM NaCl, 1 mM dithiothreitol, 0.01% (w/v) bovine serum albumin, 0.01% (v/v) Triton X-100] were added and the mixture was incubated for 15 min at 22° C. to allow pre-binding of the test compounds to the enzyme before the start of the kinase reaction. Then the kinase reaction was started by the addition of 3 μL of a solution of ATP (1.67 μM=>final conc. in the 5 μL assay volume is 1 μM) and peptide substrate (50 μM=>final conc. in the 5 μL assay volume is 30 μM) in assay buffer and the resulting mixture was incubated for a reaction time of 30 min at 22° C. The concentration of CSNK1D was adjusted depending of the activity of the enzyme lot and was chosen appropriate to have the assay in the linear range, a typical concentration is about 0.5 ng/μL. The reaction was stopped by the addition of 2.5 μL of “ADP-Glo-reagent” (1:1.5 fold diluted with water) and the resulting mixture was incubated at 22° C. for 1 h to convert the ATP not consumed in the kinase reaction completely […]. Subsequently 2.5 μL of the “kinase detection reagent” (1.2 fold more concentrated than recommended by the producer) were added, the resulting mixture was incubated at 22° C. for 1 h and then the luminescence measured with a suitable measurement instrument (e.g. Viewlux™ from Perkin-Elmer). The amount of emitted light was taken as a measure for the amount of ADP generated and thereby for the activity of the CSNK1D.
The data were normalised (enzyme reaction without inhibitor=0% inhibition, all other assay components but no enzyme=100% inhibition).

[1] = target: wild-type Epidermal Growth Factor Receptor (EGFR) (Homo sapiens (Human), UniProt P00533); assay: WT-EGFR kinase assay (TR-FRET, 2 mM ATP); type: biochemical; details: median or individual measurements, Table 3, read-out: EGFR Wildtyp-2mM ATP IC50 [mol/l] (median)
Excerpt: Inhibitory activity of compounds of the present invention against wild-type Epidermal Growth Factor Receptor (EGFR) was quantified employing the TR-FRET based EGFR assay as described in the following paragraphs.
Recombinant fusion protein of N-terminal Glutathion-S-Transferase (GST) and a fragment of human EGFR (amino acids R669 to A1210), expressed in Sf9 insect cells and purified via affinity chromatography using Glutathion Sepharose as described above, was used as kinase. As substrate for the kinase reaction the biotinylated peptide biotin-Ahx-AEEEEYFELVAKKK (C-terminus in amide form) was used which can be purchased e.g. form the company Biosynthan GmbH (Berlin-Buch, Germany).
For the assay 50 nl of a 100 fold concentrated solution of the test compound in DMSO was pipetted into either a black low volume 384 well microtiter plate or a black 1536 well microtiter plate (both Greiner Bio-One, Frickenhausen, Germany), 2 μL of a solution of EGFR in aqueous assay buffer [50 mM Hepes pH 7.0, 10 mM MgCl2, 1 mM dithiothreitol, 0.5 mM EGTA, 0.3 mM activated sodium ortho-vanadate, 0.005% (w/v) bovine serum albumin, 0.005% (v/v) Tween-20] were added and the mixture was incubated for 15 min at 22° C. to allow pre-binding of the test compounds to the enzyme before the start of the kinase reaction. Then the kinase reaction was started by the addition of 3 μL of a solution of adenosine-tri-phosphate (ATP, 3.33 mM=>final conc. in the 5 μL assay volume is 2 mM) and substrate (1.67 μM=>final conc. in the 5 μL assay volume is 1 μM) in assay buffer and the resulting mixture was incubated for a reaction time of 30 min at 22° C. The concentration of EGFR was adjusted depending of the activity of the enzyme lot and was chosen appropriate to have the assay in the linear range, typical concentration was 7.6 pg/μL. The reaction was stopped by the addition of 3 μL of a solution of HTRF detection reagents (83.3 nM streptavidine-XL665 [Cisbio Bioassays, Codolet, France] and 1.67 nM PT66-Tb-Cryptate, a terbium-cryptate labelled anti-phospho-tyrosine antibody from Cisbio Bioassays [instead of the PT66-Tb-cryptate PT66-Eu-Chelate from Perkin Elmer can also be used]) in an aqueous EDTA-solution (133.3 mM EDTA, 0.2% (w/v) bovine serum albumin in 50 mM HEPES pH 7.5).
The resulting mixture was incubated 1 h at 22° C. to allow the binding of the biotinylated phosphorylated peptide to the streptavidine-XL665 and the PT66-Tb-Cryptate. Subsequently the amount of phosphorylated substrate was evaluated by measurement of the resonance energy transfer from the PT66-Tb-Cryptate to the streptavidine-XL665. Therefore, the fluorescence emissions at 620 nm and 665 nm after excitation at 337 nm were measured in a HTRF reader, e.g. a Pherastar (BMG Labtechnologies, Offenburg, Germany) or a Viewlux (Perkin-Elmer). The ratio of the emissions at 665 nm and at […] was taken as the measure for the amount of phosphorylated substrate. The data were normalised (enzyme reaction without inhibitor=0% inhibition, all other assay components but no enzyme=100% inhibition).

wild-type Epidermal Growth Factor Receptor (EGFR), sequence (P00533 669-1210): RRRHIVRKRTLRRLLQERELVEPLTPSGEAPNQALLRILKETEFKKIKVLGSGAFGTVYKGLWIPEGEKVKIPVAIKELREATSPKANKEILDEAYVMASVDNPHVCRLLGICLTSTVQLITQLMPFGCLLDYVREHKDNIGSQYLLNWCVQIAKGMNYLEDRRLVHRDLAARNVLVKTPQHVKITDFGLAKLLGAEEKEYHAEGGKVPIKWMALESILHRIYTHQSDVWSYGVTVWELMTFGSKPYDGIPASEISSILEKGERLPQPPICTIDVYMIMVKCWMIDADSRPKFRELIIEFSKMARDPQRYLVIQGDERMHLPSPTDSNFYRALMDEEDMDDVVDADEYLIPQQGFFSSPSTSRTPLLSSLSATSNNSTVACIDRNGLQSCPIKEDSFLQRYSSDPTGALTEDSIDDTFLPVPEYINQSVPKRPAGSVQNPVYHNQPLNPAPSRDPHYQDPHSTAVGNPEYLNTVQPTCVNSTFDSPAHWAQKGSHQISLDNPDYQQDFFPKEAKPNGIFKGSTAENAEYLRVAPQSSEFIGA
human CSNK1D, sequence (P48730 whole entry): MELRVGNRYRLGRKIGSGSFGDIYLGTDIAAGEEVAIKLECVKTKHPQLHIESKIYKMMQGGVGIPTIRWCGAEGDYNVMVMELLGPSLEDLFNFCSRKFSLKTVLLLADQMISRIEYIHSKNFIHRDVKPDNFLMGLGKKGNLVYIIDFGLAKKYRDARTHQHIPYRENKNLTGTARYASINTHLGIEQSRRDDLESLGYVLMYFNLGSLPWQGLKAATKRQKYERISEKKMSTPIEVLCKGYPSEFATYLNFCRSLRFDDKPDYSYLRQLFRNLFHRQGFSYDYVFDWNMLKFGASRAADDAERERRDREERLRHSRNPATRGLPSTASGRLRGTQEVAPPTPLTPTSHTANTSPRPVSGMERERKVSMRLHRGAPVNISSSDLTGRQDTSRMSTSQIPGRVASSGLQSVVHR

CN1CC(CC(F)(F)F)c2[nH]c(-c3ccnc(NC(=O)C(CC(F)F)c4ccc(F)cc4)c3)c(Nc3cscn3)c2C1=O (racemic) [Example 52, (2RS)-4,4-difluoro-2-(4-fluorophenyl)-N-{4-[(7RS)-5-methyl-4-oxo-3-[(1,3-thiazol-4-yl)amino]-7-(2,2,2-trifluoroethyl)-4,5,6,7-tetrahydro-1H-pyrrolo[3,2-c]pyridin-2-yl]pyridin-2-yl}butanamide]
IC50 (human CSNK1D): 0.012 µM
IC50 [1]: > 20 µM

CCC1CNC(=O)c2c1[nH]c(-c1ccnc(NC(=O)Cc3ccc(F)cc3)c1)c2Nc1ccccc1 (single isomer, unassigned) [Example 2, N-{4-[3-anilino-7-ethyl-4-oxo-4,5,6,7-tetrahydro-1H-pyrrolo[3,2-c]pyridin-2-yl]pyridin-2-yl}-2-(4-fluorophenyl)acetamide]
IC50 (human CSNK1D): 0.0052 µM
IC50 [1]: 0.19 µM

CCC1CNC(=O)c2c1[nH]c(-c1ccnc(NC(=O)Cc3ccc(F)cc3)c1)c2Nc1ccccc1 (single isomer, unassigned) [Example 3, N-{4-[3-anilino-7-ethyl-4-oxo-4,5,6,7-tetrahydro-1H-pyrrolo[3,2-c]pyridin-2-yl]pyridin-2-yl}-2-(4-fluorophenyl)acetamide]
IC50 (human CSNK1D): 0.01 µM
IC50 [1]: 0.32 µM

Cc1cn(C)c(=O)c2c(Nc3ccccc3)c(-c3ccnc(NC(=O)C(CC(F)F)c4ccc(F)cc4)c3)[nH]c12 (single isomer, unassigned) [Example 12, N-[4-(3-anilino-5,7-dimethyl-4-oxo-4,5-dihydro-1H-pyrrolo[3,2-c]pyridin-2-yl)pyridin-2-yl]-4,4-difluoro-2-(4-fluorophenyl)butanamide]
IC50 (human CSNK1D): 0.16 µM
IC50 [1]: > 20 µM

Cc1cn(C)c(=O)c2c(Nc3ccccc3)c(-c3ccnc(NC(=O)C(CC(F)F)c4ccc(F)cc4)c3)[nH]c12 (single isomer, unassigned) [Example 13, N-[4-(3-anilino-5,7-dimethyl-4-oxo-4,5-dihydro-1H-pyrrolo[3,2-c]pyridin-2-yl)pyridin-2-yl]-4,4-difluoro-2-(4-fluorophenyl)butanamide]
IC50 (human CSNK1D): 0.022 µM
IC50 [1]: > 20 µM

CN1CC(CC(F)(F)F)c2[nH]c(-c3ccnc(NC(=O)Cc4ccc(F)cc4)c3)c(Nc3ccccc3)c2C1=O (single isomer, unassigned) [Example 15, N-{4-[3-anilino-5-methyl-4-oxo-7-(2,2,2-trifluoroethyl)-4,5,6,7-tetrahydro-1H-pyrrolo[3,2-c]pyridin-2-yl]pyridin-2-yl}-2-(4-fluorophenyl)acetamide]
IC50 (human CSNK1D): 0.02 µM
IC50 [1]: 2.9 µM

CN1CC(CC(F)(F)F)c2[nH]c(-c3ccnc(NC(=O)Cc4ccc(F)cc4)c3)c(Nc3ccccc3)c2C1=O (single isomer, unassigned) [Example 16, N-{4-[3-anilino-5-methyl-4-oxo-7-(2,2,2-trifluoroethyl)-4,5,6,7-tetrahydro-1H-pyrrolo[3,2-c]pyridin-2-yl]pyridin-2-yl}-2-(4-fluorophenyl)acetamide]
IC50 (human CSNK1D): 0.0071 µM
IC50 [1]: 1.8 µM

CN1CC(CC2CC2)c2[nH]c(-c3ccnc(NC(=O)Cc4ccc(F)cc4)c3)c(Nc3ccccc3)c2C1=O (single isomer, unassigned) [Example 19, N-{4-[3-anilino-7-(cyclopropylmethyl)-5-methyl-4-oxo-4,5,6,7-tetrahydro-1H-pyrrolo[3,2-c]pyridin-2-yl]pyridin-2-yl}-2-(4-fluorophenyl)acetamide]
IC50 (human CSNK1D): 0.0065 µM
IC50 [1]: 1.8 µM

CN1CC(CC2CC2)c2[nH]c(-c3ccnc(NC(=O)Cc4ccc(F)cc4)c3)c(Nc3ccccc3)c2C1=O (single isomer, unassigned) [Example 20, N-{4-[3-anilino-7-(cyclopropylmethyl)-5-methyl-4-oxo-4,5,6,7-tetrahydro-1H-pyrrolo[3,2-c]pyridin-2-yl]pyridin-2-yl}-2-(4-fluorophenyl)acetamide]
IC50 (human CSNK1D): 0.029 µM
IC50 [1]: 8 µM

C[C@H](C(=O)Nc1cc(-c2[nH]c3ccn(C)c(=O)c3c2Nc2ccccc2)ccn1)c1ccc(F)cc1 (single isomer, unassigned) [Example 26]
IC50 (human CSNK1D): 0.022 µM
IC50 [1]: > 20 µM

C[C@@H](C(=O)Nc1cc(-c2[nH]c3ccn(C)c(=O)c3c2Nc2ccccc2)ccn1)c1ccc(F)cc1 (single isomer, unassigned) [Example 27]
IC50 (human CSNK1D): 0.028 µM
IC50 [1]: > 20 µM

Cn1ccc2[nH]c(-c3ccnc(NC(=O)C(CC(F)F)c4ccc(F)cc4)c3)c(Nc3ccccc3)c2c1=O (single isomer, unassigned) [Example 29, N-[4-(3-anilino-5-methyl-4-oxo-4,5-dihydro-1H-pyrrolo[3,2-c]pyridin-2-yl)pyridin-2-yl]-4,4-difluoro-2-(4-fluorophenyl)butanamide]
IC50 (human CSNK1D): 0.053 µM
IC50 [1]: > 20 µM

Cn1ccc2[nH]c(-c3ccnc(NC(=O)C(CC(F)F)c4ccc(F)cc4)c3)c(Nc3ccccc3)c2c1=O (single isomer, unassigned) [Example 30, N-[4-(3-anilino-5-methyl-4-oxo-4,5-dihydro-1H-pyrrolo[3,2-c]pyridin-2-yl)pyridin-2-yl]-4,4-difluoro-2-(4-fluorophenyl)butanamide]
IC50 (human CSNK1D): 0.0071 µM
IC50 [1]: > 20 µM (2×) and 3.9 µM and 5.1 µM and 5.5 µM and 7.2 µM and 15 µM and 10 µM

Cn1cc(CC(F)(F)F)c2[nH]c(-c3ccnc(NC(=O)C(CC(F)F)c4ccc(F)cc4)c3)c(Nc3ccccc3)c2c1=O (single isomer, unassigned) [Example 36, N-{4-[3-anilino-5-methyl-4-oxo-7-(2,2,2-trifluoroethyl)-4,5-dihydro-1H-pyrrolo[3,2-c]pyridin-2-yl]pyridin-2-yl}-4,4-difluoro-2-(4-fluorophenyl)butanamide]
IC50 (human CSNK1D): 0.0076 µM
IC50 [1]: 1.1 µM
